In US8957076B2, “Wound healing” (Systagenix Wound Management (US), Inc., priority 2004, dated 2015):

Test system: diabetic wounds
Test: Closure of full thickness flank skin wounds in diabetic mice, topical treatment
Type: in vivo, mice (C57BLKs/Bom db/db)
Settings: for % wound area remaining relative to day 0 (mean ± standard error): six wounds
Method: Female diabetic mice (C57BLKs/Bom db/db; B&M, Denmark) aged approximately 16 weeks will be used in this study. On arrival mice were housed in groups of 5 to 10 according to Home Office regulations. On the first day of the study period, animals were housed in individual cages (cage dimensions 35×15×15 cm with sawdust bedding, changed twice weekly), in an environment maintained at an ambient temperature of 23° C. with 12-hour light/dark cycles. They were provided with food (Standard Rodent Diet) and water ad libitum. To acclimatise the animals to their surroundings, prior to experimentation, they were housed for a minimum of one week without disturbance, other than to refresh their bedding and to replenish their food and water provisions. Following wounding, animals were monitored until they had fully recovered from the procedure and then housed under individual conditions for the remainder of the study period. All animal procedures were carried out in a Home Office licensed establishment in accordance with Home Office Licence procedures. Animals were anaesthetised (halothane and air) and shaved. A single standardised full thickness wound (7.5 mm×7.5 mm) was created in the flank skin of each experimental animal. Wounds received, saline [50 μl], vehicle [50 μl pH 4.0 vehicle], 1 μg of p38 MAP kinase inhibitor [in 50 μl pH 4.0 vehicle] or 10 μg of p38 MAP kinase inhibitor [in 50 μl pH 4.0 vehicle]. The p38 MAP kinase inhibitor had the following formula: All wounds were secondarily dressed with a 1.5×1.5 cm pad of RELEASE dressing (Johnson & Johnson Wound Management). The RELEASE pad was held in place using a circumferential band of the occlusive film dressing Bioclusive (Johnson & Johnson Wound Management). Animals were re-anaesthetized and treatments re-applied on days 2, 4, 7, 9 and 11-post wounding. Immediately after wounding and subsequently on days 2, 4, 7, 9, 11 and 14 all wounds were digitally photographed together with a calibration/identity plate. On day 14 of the study animals will be euthanised. Image Pro image analysis software (version 4.1.0.0, Media Cybernetics, USA) was used to calculate wound closure from wound images in each of the experimental groups over time. Non-parametric analysis (Kruskal Wallis—Multivariate Analysis followed by ad hoc two sample Mann Whitney U-test analysis) will be used to test the significance of any inter-group differences in wound closure.

Q: How did the “% wound area remaining relative to day 0 (mean ± standard error)” value (1.0 μg per wound in 50 μl pH 4.0 vehicle, day 2 post-wounding) turn out when `CC(=O)N1CCN(c2c(-c3ccncc3)c(-c3ccc(F)cc3)c(C#N)n2C)CC1` [p38 MAP kinase inhibitor] was run?
A: 86.15 ± 6.63%

Q: And the “% wound area remaining relative to day 0 (mean ± standard error)” value (1.0 μg per wound in 50 μl pH 4.0 vehicle, day 4 post-wounding)?
A: 66.32 ± 6.58%

Q: And the “% wound area remaining relative to day 0 (mean ± standard error)” value (1.0 μg per wound in 50 μl pH 4.0 vehicle, day 7 post-wounding)?
A: 38.65 ± 2.62%

Q: And the “% wound area remaining relative to day 0 (mean ± standard error)” value (1.0 μg per wound in 50 μl pH 4.0 vehicle, day 9 post-wounding)?
A: 18.87 ± 4.44%

Q: And the “% wound area remaining relative to day 0 (mean ± standard error)” value (1.0 μg per wound in 50 μl pH 4.0 vehicle, day 11 post-wounding)?
A: 6.03 ± 2.17%

Q: What about the “% wound area remaining relative to day 0 (mean ± standard error)” value (10.0 μg per wound in 50 μl pH 4.0 vehicle, day 2 post-wounding) of the same molecule?
A: 75.48 ± 6.32%

Q: And the “% wound area remaining relative to day 0 (mean ± standard error)” value (10.0 μg per wound in 50 μl pH 4.0 vehicle, day 4 post-wounding)?
A: 58.34 ± 6.49%

Q: What about the “% wound area remaining relative to day 0 (mean ± standard error)” value (10.0 μg per wound in 50 μl pH 4.0 vehicle, day 7 post-wounding) of the same molecule?
A: 29.80 ± 4.66%

Q: What about the “% wound area remaining relative to day 0 (mean ± standard error)” value (10.0 μg per wound in 50 μl pH 4.0 vehicle, day 9 post-wounding) of the same molecule?
A: 13.31 ± 1.64%

Q: And the “% wound area remaining relative to day 0 (mean ± standard error)” value (10.0 μg per wound in 50 μl pH 4.0 vehicle, day 11 post-wounding)?
A: 3.34 ± 0.96%

Q: And the “closure compared to saline treatment” value (10.0 μg, day 2, 7, 11 p=0.055, day 9 p=0.025 (statistically significant))?
A: noticeably more rapid

Q: And the “wound size compared to citrate treated wounds” value (10.0 μg, day 9 and day 11 assessment points)?
A: statistically smaller

Q: And the “closure of diabetic wounds compared to treatment with the vehicle” value (versus Citrate Buffer, pH 4.0, effect most apparent for the highest dose)?
A: appeared to accelerate the closure of diabetic wounds
